In PubChem BioAssay (NCI):
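Exposure lasted 48 hours, with cells grown in 96-well plates and compounds tested at five concentrations. The concentration for 50% growth inhibition is given as GI50. Definition used: TGI = concentration required for complete inhibition of growth.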

Legend:
Assay in all cases: DTP human tumour cell line panel, 48 h
COLO 205 colon = system: COLO 205 colon
HS 578T breast = system: HS 578T breast
K-562 leukemia = system: K-562 leukemia
OVCAR-4 ovarian = system: OVCAR-4 ovarian
SF-539 CNS = system: SF-539 CNS
SK-OV-3 ovarian = system: SK-OV-3 ovarian
TK-10 renal = system: TK-10 renal
ACHN renal = system: ACHN renal
HCC-2998 colon = system: HCC-2998 colon
MALME-3M melanoma = system: MALME-3M melanoma

For `OCc1ccc(Oc2c3ccccc3nc3occc23)cc1`, the GI50 (COLO 205 colon) was 26.1 µM, the TGI (COLO 205 colon) was 54.8 µM and the GI50 (HS 578T breast) was 54.8 µM. For the same compound, the TGI (HS 578T breast) was > 100 µM, the GI50 (K-562 leukemia) was 30.9 µM and the TGI (K-562 leukemia) was > 100 µM. For the same compound, the GI50 (OVCAR-4 ovarian) was 37.9 µM, the TGI (OVCAR-4 ovarian) was > 100 µM and the GI50 (SF-539 CNS) was 28.9 µM. For the same compound, the TGI (SF-539 CNS) was 71 µM, the GI50 (SK-OV-3 ovarian) was 36.8 µM and the TGI (SK-OV-3 ovarian) was > 100 µM. The GI50 (TK-10 renal) was 18.1 µM and the TGI (TK-10 renal) was 46.8 µM.
`COc1ccccc1NC(=O)CC(=O)NNCC(=O)Nc1nnc(-c2ccccc2)o1` was tested, and the TGI (ACHN renal) was > 100 µM, the TGI (COLO 205 colon) was > 100 µM and the TGI (HCC-2998 colon) was > 100 µM. The TGI (K-562 leukemia) was > 100 µM, the TGI (OVCAR-4 ovarian) was > 100 µM and the TGI (SF-539 CNS) was > 100 µM. For the same compound, the TGI (SK-OV-3 ovarian) was > 100 µM and the TGI (TK-10 renal) was > 100 µM.
Compound `CC(C)=CC1CC(C)C2(CCC3(C)CC4C(C(=O)CC4(C)O)/C(C=O)=C\CC32)O1` (centres undefined) has a TGI (ACHN renal) of 0.115 µM, a TGI (COLO 205 colon) of 0.153 µM and a TGI (HCC-2998 colon) of 0.328 µM. The TGI (HS 578T breast) was 0.421 µM, the TGI (K-562 leukemia) was 0.232 µM and the TGI (OVCAR-4 ovarian) was 0.147 µM. For the same compound, the TGI (SF-539 CNS) was 0.239 µM, the TGI (SK-OV-3 ovarian) was 0.297 µM and the TGI (TK-10 renal) was 0.0596 µM.
For `Cn1c(=O)oc2cc(C3CCC(=O)N3Cc3ccc(Cl)cc3)ccc21` (centres undefined), the TGI (ACHN renal) was > 100 µM, the TGI (COLO 205 colon) was > 100 µM and the TGI (HCC-2998 colon) was > 100 µM. The TGI (K-562 leukemia) was > 100 µM, the TGI (MALME-3M melanoma) was > 100 µM and the TGI (OVCAR-4 ovarian) was > 100 µM. For the same compound, the TGI (SF-539 CNS) was > 100 µM, the TGI (SK-OV-3 ovarian) was > 100 µM and the TGI (TK-10 renal) was > 100 µM.
`COc1ccc2c(c1)CCCC1C3=NCCC3(C)CSC21` (centres undefined) was tested, and the TGI (COLO 205 colon) was > 100 µM, the TGI (K-562 leukemia) was > 100 µM and the TGI (OVCAR-4 ovarian) was > 100 µM. For the same compound, the TGI (SF-539 CNS) was > 100 µM, the TGI (SK-OV-3 ovarian) was > 100 µM and the TGI (TK-10 renal) was > 100 µM.
`NC(=O)c1c2c(cc3c(=O)c4ccccc4[nH]c13)CCCC2` was tested, and the TGI (ACHN renal) was > 100 µM, the TGI (COLO 205 colon) was > 100 µM and the TGI (HCC-2998 colon) was > 100 µM. The TGI (K-562 leukemia) was > 97.3 µM, the TGI (MALME-3M melanoma) was > 100 µM and the TGI (OVCAR-4 ovarian) was > 100 µM. The TGI (SF-539 CNS) was > 100 µM, the TGI (SK-OV-3 ovarian) was > 100 µM and the TGI (TK-10 renal) was > 100 µM.
For `CCOC(=O)c1cnc2cc3cccccc3n2c1=O`, the TGI (ACHN renal) was > 100 µM, the TGI (COLO 205 colon) was > 100 µM and the TGI (HCC-2998 colon) was > 100 µM. The TGI (K-562 leukemia) was > 100 µM, the TGI (OVCAR-4 ovarian) was > 100 µM and the TGI (SF-539 CNS) was > 100 µM. The TGI (TK-10 renal) was > 100 µM.
Work on `CCC[CH2][Sn]1([CH2]CCC)[O]C(=O)CN=Cc2ccccc2[O]1` yielded a GI50 (ACHN renal) of 0.323 µM, a TGI (ACHN renal) of 1.1 µM and a GI50 (COLO 205 colon) of 0.298 µM. For the same compound, the TGI (COLO 205 colon) was 1.27 µM, the GI50 (HCC-2998 colon) was 0.525 µM and the TGI (HCC-2998 colon) was 1.81 µM. It also gave a GI50 (K-562 leukemia) of 0.192 µM, a TGI (K-562 leukemia) of 1.27 µM and a GI50 (MALME-3M melanoma) of 0.141 µM. The TGI (MALME-3M melanoma) was 0.469 µM, the GI50 (OVCAR-4 ovarian) was 0.881 µM and the TGI (OVCAR-4 ovarian) was 2.32 µM. For the same compound, the GI50 (SF-539 CNS) was 1.3 µM, the TGI (SF-539 CNS) was > 100 µM and the GI50 (SK-OV-3 ovarian) was 0.922 µM. The TGI (SK-OV-3 ovarian) was 2.18 µM, the GI50 (TK-10 renal) was 0.292 µM and the TGI (TK-10 renal) was 0.729 µM.
In the case of `CCOC(=O)C1=C(c2ccccc2)N(c2ccc(OC)cc2)[C@]2(C#N)C(O)=C(Cl)C(Cl)=C(O)[C@]12C#N`, the GI50 (ACHN renal) is reported as 19.7 µM, the TGI (ACHN renal) is reported as 42.1 µM and the GI50 (COLO 205 colon) is reported as 18.6 µM. For the same compound, the TGI (COLO 205 colon) was 33.5 µM, the GI50 (HS 578T breast) was 43.5 µM and the TGI (HS 578T breast) was > 100 µM. It also gave a GI50 (K-562 leukemia) of 17.6 µM, a TGI (K-562 leukemia) of 34.6 µM and a GI50 (MALME-3M melanoma) of 18.7 µM. For the same compound, the TGI (MALME-3M melanoma) was 42.6 µM, the GI50 (OVCAR-4 ovarian) was 46.3 µM and the TGI (OVCAR-4 ovarian) was > 100 µM. It also gave a GI50 (SF-539 CNS) of 24.5 µM, a TGI (SF-539 CNS) of 56.3 µM and a GI50 (SK-OV-3 ovarian) of 23.4 µM. The TGI (SK-OV-3 ovarian) was 62.7 µM, the GI50 (TK-10 renal) was 24.3 µM and the TGI (TK-10 renal) was 74.8 µM.
Work on `Cc1ccc(Oc2nc3ccccc3cc2-c2nnc(Cn3c(COc4ccccc4)nc4ccccc43)o2)cc1` yielded a GI50 (COLO 205 colon) of 1.89 µM, a TGI (COLO 205 colon) of 4.44 µM and a GI50 (HCC-2998 colon) of 4.4 µM. For the same compound, the TGI (HCC-2998 colon) was 15.3 µM, the GI50 (HS 578T breast) was 4.39 µM and the TGI (HS 578T breast) was 33.8 µM. The GI50 (K-562 leukemia) was 2.59 µM, the TGI (K-562 leukemia) was > 100 µM and the GI50 (MALME-3M melanoma) was 3.65 µM. The TGI (MALME-3M melanoma) was 15.6 µM, the GI50 (OVCAR-4 ovarian) was 2.36 µM and the TGI (OVCAR-4 ovarian) was 10.2 µM. For the same compound, the GI50 (SK-OV-3 ovarian) was 11.8 µM, the TGI (SK-OV-3 ovarian) was 32.7 µM and the GI50 (TK-10 renal) was 3.91 µM. It also gave a TGI (TK-10 renal) of 9.92 µM.
